# Test results as given in patent US6241963A, “Dopamine and serotonin transporter ligands and imaging agents” (priority 1996, dated 2001).
# “And” between values parts separate entries of the source, which are not always exact repeats. Equal entries are not always repeated. “Also recorded” adds a separate entry of the source.
# How the values were obtained:
# dopamine transporter = assay: Blocking studies in rats (pretreatment or co-injection with competing agent); format: in vivo, Male Sprague-Dawley rats; conditions: for ST/CB ratio after pretreatment with haldol (haloperidol) / ST/CB ratio after pretreatment with β-CIT (RTI-55): 60 min, pretreated 1 mg/kg iv, 5 min before tracer; for ST/CB ratio, control rats of blocking study: 60 min post-injection, no pretreatment
# Description: (§1) Regional brain distribution in rats was obtained after an injection of 1.19a, 1.19b, 1.20a, 1.20b or 1.21. Samples from different brain regions (cortex, striatum, hippocampus, and cerebellum) were dissected, weighed and counted, and the percentage dose per gram of sample was calculated by comparing the sample counts with the count of the diluted initial dose. The uptake ratio of each region was obtained by dividing the percentage dose per gram of that region by that of the cerebellum. For blocking studies, rats were injected with either β-CIT or haloperidol (iv, 1 mg/Kg) 5 min prior to injection of 1.19a. The rats were dissected and brain tissue samples were counted as described above. The specific uptake of the compound was expressed as ratio of ST/CB (% dose/g of striatum divided by the same of cerebellum).
# as §1, with “3.24 to 3.34.” for “1.19a, 1.19b, 1.20a, 1.20b or 1.21.”, “3.25.” for “1.19a.”, “above.” for “above. The specific uptake of the compound was expressed as ratio of ST/CB (% dose/g of striatum divided by the same of cerebellum).”
# dopamine transporters [1] = assay: SPECT imaging in a baboon, co-registered with MRI; format: in vivo; conditions: 60-90 min post iv injection of 9 mCi
# Description: A baboon (~15 kg) was the subject of a SPECT imaging study. Prior to imaging, the animal was fasted, immobilized with ketamine (10-20 mg/kg, i.m.) and xylazine (2-3 mg/kg, i.m.), intubated and maintained on a 1.5-2.0% isofluorane/98.5% oxygen mixture (flow rate of 200-500 cc/min). […] Body temperature was maintained using a hot water circulating heating pad and was monitored with a rectal thermometer. The animal's head was immobilized using a vacuum-packed bean-bag device that hardens upon evacuation when molded around the head. No-carrier-added [^99m Tc]TRODAT-1 (1.19a; 9 mCi) was administered as an intravenous bolus in the saphenous vein of the baboon. Immediately after injection, sequential 5 minute per frame dynamic SPECT scans were acquired on a triple-headed Picker Prism 3000 camera (FWHM: 7 mm) equipped with fan beam collimators for 2 hours. The acquisition parameters were a 20% energy window at 140 KeV, 120 projection angles over 360 degrees, a 128×128 matrix, and a zoom factor of 1.78 in a slice thickness of 2 mm. The projection data was reconstructed with a count dependent 3-D Wiener filter. Chang's first order correction method was used to compensate for attenuation. Magnetic resonance images (MRI) of the baboon brain were acquired with a 1.5 Tesla machine (GE Medical Systems, Milwaukee, Wis.). […]
# dopamine transporters [2] = target: dopamine transporters (Rattus norvegicus, UniProt P23977); assay: In vitro autoradiography of rat brain sections; format: binding, Male Sprague-Dawley rats; conditions: rat brain coronal sections
# dopamine transporters (Rattus norvegicus, UniProt P23977), sequence (P23977 whole entry): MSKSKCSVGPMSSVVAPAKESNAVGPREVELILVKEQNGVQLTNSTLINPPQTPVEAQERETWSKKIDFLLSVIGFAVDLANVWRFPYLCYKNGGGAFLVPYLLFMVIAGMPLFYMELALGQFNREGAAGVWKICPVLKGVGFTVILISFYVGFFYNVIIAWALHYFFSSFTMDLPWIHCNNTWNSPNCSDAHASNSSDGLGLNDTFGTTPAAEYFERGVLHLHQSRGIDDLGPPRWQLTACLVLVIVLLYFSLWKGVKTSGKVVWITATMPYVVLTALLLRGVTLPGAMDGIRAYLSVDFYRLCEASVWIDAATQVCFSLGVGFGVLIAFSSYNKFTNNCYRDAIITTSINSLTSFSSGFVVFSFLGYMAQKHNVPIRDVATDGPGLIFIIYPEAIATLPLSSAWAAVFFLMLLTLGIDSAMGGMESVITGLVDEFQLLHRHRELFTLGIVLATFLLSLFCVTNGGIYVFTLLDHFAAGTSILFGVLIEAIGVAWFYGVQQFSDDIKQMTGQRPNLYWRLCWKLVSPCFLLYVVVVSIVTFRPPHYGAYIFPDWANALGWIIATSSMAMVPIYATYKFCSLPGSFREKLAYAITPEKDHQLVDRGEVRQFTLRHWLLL
# Description: Male Sprague-Dawley rats ([…]) were sacrificed by decapitation, and the brains were removed, placed in OTC embedding medium (Miles Laboratory, Elkhart, Ind.) frozen in powdered dry ice. After equilibration to -15° C., 20 μm coronal sections were sliced on a cryostat (Hacker Instruments, Fairfield, N.J.), thaw mounted onto gelatin-coated slides, desiccated at 4° C. for 3 hours and kept at -70° C. until use. Prior to the experiment, the slides were dried at room temperature and preincubated for 30 minutes in buffer containing 50 mM Tris-HCl (pH 7.4, 120 mM NaCl). The slides were then incubated for 2 hours in preincubation buffer and the [^99m Tc] compound 3.25 (385,000 cpm/200 μL) in a coplan jar, washed for 1 hour in cold Tris buffer, with one change of buffer, dipped in ice-cold water to remove buffer salts and allowed to dry at room temperature. Nonspecific binding was determined in the presence of 1 μM IPT. These slides were simultaneously exposed to DuPont x-ray film in an autoradiographic cassette for 18 hours. The exposed film was developed with a Kodak automatic film processor.
# [3] = rat, cited from earlier work
Compound,ST/CB ratio after pretreatment with haldol (haloperidol) (dopamine transporter),ST/CB ratio after pretreatment with β-CIT (RTI-55) (dopamine transporter),"ST/CB ratio, control rats of blocking study (dopamine transporter)",SPECT localization in brain (dopamine transporters [1]),Autoradiographic regional labeling (dopamine transporters [2]),Initial brain uptake at 2 minutes ([3]; 2 min post iv injection (Meegalla 1995)) [%],ST/CB ratio at 60 minutes ([3]; 60 min after iv injection (Meegalla 1995))
CN1[C@H]2CC[C@@H]1[C@@H](C[N+]13CC[S][99Tc-]14(=[O])[S]CC[N]4CC3)[C@@H](c1ccc(Cl)cc1)C2 (stereo partly shown) [Compound 1.19a],2.6,1.0,2.66 and 2.6,excellent consistence with the expected localization of this agent in caudate and putamen areas; also recorded: A high accumulation,,,
"COC(=O)C1C(c2ccc(Cl)cc2)CC2CCC1N2CC[S][99Tc-]12(=[O])[S]CC[N+]1(C)CC[S]2 [Compound 3.25, [^99m Tc] technetium, [methyl 3-(4-chlorophenyl)-8-(2-mercaptoethyl)-8-azabicyclo [3.2.1]octane-2-carboxylato-S][[2,2'-(methylimino)bis[ethanethiolato]](2-)-N,S,S']oxo]",2.6,1.0,2.6,,"elevated labeling in striatum, major islands of Calleja and olfactory tubercle regions; also recorded: intense labeling in caudate putamen and olfactory tubercle; also recorded: localized in caudate putamen and olfactory tubercle",0.1,3.50
